{"source": "patent US12578273B2", "about": "“Ph-reversible leuco-BODIPY probe for in situ visualization of extracellular vesicles and their secretion from living cells” (The Chinese University of Hong Kong, priority 2021, dated 2026)", "key": {"[1]": {"assay": "pH-dependent spectroscopic properties (pH titration, absorption and fluorescence)", "assay_type": "physicochemical", "conditions": "weakly basic conditions (pH of about 7.4); PBS containing 50% ethanol", "experimental": "In each step of pH titration, small volumes (2-10 μL) of HCl at appropriate concentrations (0.1, 10^−2, or 10^−3 M) were pipetted directly into the measurement cell, followed by filling up with 2 mL of 1 μM dye-containing solution [either in a mixture of PBS/ethanol 1:1 (v/v) or 0.5% (v/v) DMSO]. The pH was monitored at 298 K using a digital pH meter (827 pH lab) equipped with a Biotrode (Metrohm, Herisau, Switzerland). Calibration of the instrument was performed with standard aqueous solutions of pH 4, 7, and 9 from Metrohm. Absorption and fluorescence measurements were carried out on an Agilent Cary 5000 spectrophotometer and a Horiba Jobin Yvon spectrometer (Nanolog FL3-2iHR), respectively.\nWe investigated the spectroscopic properties of the fluorescent probe as a function of pH in phosphate-buffered saline (PBS) containing 50% ethanol by UV-vis spectrophotometry and fluorimetry (FIGS. 21A-21F, 22-23)."}, "[2]": {"tested_on": "EVs secreted by HEK293 cells", "assay": "Estimation of the fluorescence signal per EV", "assay_type": "cell-based", "conditions": "5 μM leuco-BODIPY, 30 min, excitation 584 nm, emission 612 nm, net fluorescence divided by number of EVs (NTA)", "experimental": "(§1) Cells were pre-seeded in a 96-well plate in complete DMEM without phenol red. During the experiment, 200 μL of either fresh complete DMEM without phenol red or 5 μM leuco-BODIPY formulated in fresh complete DMEM without phenol red was added to the cells. After 30 min, the medium was collected and centrifuged for 10 min at 200×g to remove any dye-stained cell debris. The fluorescence signal in the medium was measured by a fluorescent plate reader (ThermoFisher Fluoroskan Ascent) at an excitation wavelength of 584 nm and emission wavelength of 612 nm. The net fluorescence in the dye-treated EV sample was determined by subtracting the background fluorescence of the untreated EV sample from the fluorescence of the dye-treated EV sample. Complete DMEM without phenol red was also used as a control to determine the background fluorescence of the blank culture medium. After the microplate reader experiment, each EV sample was made up to a total of 1 mL by adding DMEM without phenol red, followed by injection into a Malvern Nanosight NS500 instrument for measuring the total number of EVs in the sample. […] The fluorescence signal per EV was estimated by dividing (1) the net fluorescence (with background subtraction) of the EV sample as measured by the microplate reader by (2) the number of EVs in the sample as measured by NTA.\n(§2) Moreover, we incubated the three cell types with our probe for 30 min, isolated the EVs secreted to the culture medium, centrifuged the collected medium to remove any dye-stained cell fragments, and confirmed the detection of fluorescence in the isolated EVs (Table 1). By contrast, for the EVs isolated from the same cell types under the same culture conditions but without treatment by our probe, the fluorescence detected was at the background level of blank culture medium.\n(§3) Table 1: Estimate of the number of signals per EV. The fluorescence signal per EV is expressed in arbitrary units (a.u.), a relative value that highly depends on pH, dye concentration, and laser power. […]"}, "[3]": {"tested_on": "EVs secreted by HeLa cells", "assay": "Estimation of the fluorescence signal per EV", "assay_type": "cell-based", "conditions": "5 μM leuco-BODIPY, 30 min, excitation 584 nm, emission 612 nm, net fluorescence divided by number of EVs (NTA)", "experimental": "as §1, §2, §3"}, "[4]": {"tested_on": "EVs secreted by A549 cells", "assay": "Estimation of the fluorescence signal per EV", "assay_type": "cell-based", "conditions": "5 μM leuco-BODIPY, 30 min, excitation 584 nm, emission 612 nm, net fluorescence divided by number of EVs (NTA)", "experimental": "as §1, §2, §3"}, "HeLa cells": {"tested_on": "HeLa cells", "assay": "Pathway for the cellular entry of the probe (NaN3 or 4 °C block of energy-dependent endocytosis)", "assay_type": "cell-based", "conditions": "5 μM probe, 30 min", "experimental": "(§4) FIGS. 29A-29F Pathway for the cellular uptake of the probe. The cells were either (FIGS. 29A-29C) treated with sodium azide (NaN3) or (FIGS. 29D-29F) incubated at 4° C. for blocking energy-dependent endocytosis (red bars). Cells under normal cell culture conditions (37° C. without NaN3) serve as the positive control (green bars). Statistical analysis was conducted by two-tailed Student's t test. Not significant (ns) P>0.05. Error bar indicates standard deviation.\n(§5) Cells were firstly cultured in a 96-well plate and allowed to reach about 90% confluence. In our first experiment, the cells were either pretreated in 0.1 mL of complete DMEM containing 5 mM NaN3 (Sigma) at 37° C. for 3 h. After that, the medium was replaced by 0.1 mL of complete medium containing 5 mM NaN3 and 5 μM leuco-BODIPY (in 0.5% DMSO) at 37° C. for another 30 min. In our second experiment, the cells were preincubated with 0.1 mL of complete DMEM inside a 4° C. refrigerator for 30 min. After that, the medium was replaced by 0.1 mL of complete medium containing 5 μM leuco-BODIPY (in 0.5% DMSO) for another 30 min and incubated at 4° C. As the […], cells were incubated with 0.1 mL of complete medium containing 5 μM leuco-BODIPY (in 0.5% DMSO) at 37° C. for 30 min. At the end of both experiments, the fluorescence of the treated cells was measured by a microplate reader (ThermoFisher Fluoroskan Ascent, Waltham, MA) at an excitation wavelength of 584 nm and emission wavelength of 612 nm.\n(§6) We studied the mechanism for the cellular uptake of our probe by a pharmacological approach."}, "A549 cells": {"tested_on": "A549 cells", "assay": "Pathway for the cellular entry of the probe (NaN3 or 4 °C block of energy-dependent endocytosis)", "assay_type": "cell-based", "conditions": "5 μM probe, 30 min", "experimental": "as §4, §5, §6"}, "HEK293 cells": {"tested_on": "HEK293 cells", "assay": "Pathway for the cellular entry of the probe (NaN3 or 4 °C block of energy-dependent endocytosis)", "assay_type": "cell-based", "conditions": "5 μM probe, 30 min", "experimental": "as §4, §5, §6"}, "[5]": {"conditions": "pretreatment with sodium azide (5 mM)"}}}
{"smiles": "CCOC(=O)C(=Cc1ccc2n1[B-](F)(F)n1c(C=C(C(=O)OCC)C(=O)OCC)ccc1C2(OC)c1ccncc1)C(=O)OCC", "note": "[leuco-BODIPY]", "values": [{"measurement": "new absorption band", "setting": "[1]", "value": "~360", "unit": "nm"}, {"measurement": "Mean fluorescence signal per EV", "setting": "[2]", "value": "1.67 × 10^−6 a.u."}, {"measurement": "Mean fluorescence signal per EV", "setting": "[3]", "value": "4.63 × 10^−7 a.u."}, {"measurement": "Mean fluorescence signal per EV", "setting": "[4]", "value": "4.17 × 10^−7 a.u."}, {"measurement": "cellular uptake of the probe", "setting": "HeLa cells; preincubation at 4 °C", "value": "did not significantly affect"}, {"measurement": "cellular uptake of the probe", "setting": "HeLa cells; [5]", "value": "did not significantly affect"}, {"measurement": "cellular uptake of the probe", "setting": "A549 cells; preincubation at 4 °C", "value": "did not significantly affect"}, {"measurement": "cellular uptake of the probe", "setting": "A549 cells; [5]", "value": "did not significantly affect"}, {"measurement": "cellular uptake of the probe", "setting": "HEK293 cells; preincubation at 4 °C", "value": "did not significantly affect"}, {"measurement": "cellular uptake of the probe", "setting": "HEK293 cells; [5]", "value": "did not significantly affect"}]}
